Source: US7786042B2, “Fluridone as an anti-inflammatory agent” (Universita' Degli Studi Di Genova, priority 2005, dated 2010)
Entries after “also recorded” stand apart in the source; their conditions may differ.

How the values were obtained:
human granulocytes [1] = assay: Intracellular cADPR content in granulocytes (enzymatic cycling assay); format: cell-based; settings: ABA 20 μM
Description: (§1) Panel A. GDP-ribosyl cyclase activity has been measured in granulocytes in the presence of increasing ABA concentrations, added together with the cyclase substrate NGD^+. The results are expressed as cyclase activity relative to control cells, incubated in the absence of ABA (mean ±SD from 5 determinations). Panel B. The intracellular concentration of cADPR was measured by enzymatic cycling assay (Materials and Methods) on granulcoytes incubated with 20 μM ABA for the periods of time indicated. The results are expressed as [cADPR]i relative to control cells, incubated without ABA (n=2).
The assays to determine the intracellular cADPR concentration ([cADPR]i) in granulocytes are known to the expert in the field. Granulocytes (40×10^6/ml in RPMI 1640) were incubated in the presence of 20 μM ABA and at various times 500 μl-aliquots were withdrawn and centrifuged (5,000×g for 15 s) to recover the cell pellets. Determination of the [cADPR]i was performed on perchloric acid cell extracts by an enzymatic cycling assay, as described in (Graeff, Biochem. J. 2002).

human granulocytes [2] = assay: Intracellular calcium [Ca2+]i in granulocytes; format: cell-based; settings: 10 min after addition of 10 μM ABA; basal value 50±2 nM; n=4
Description: Granlocytes were isolated by density gradient centrifugation from the peripheral blood of healthy donors, after informed consent. Contaminating erythrocytes were removed by hypotonic lysis. […] The increase of [cADPR]i in turn induces a progressive rise of [Ca^2+]i, from a basal value of 50±2 nM to 170±25 nM after 10 min from the addition of 10 μM ABA (n=4). […] The increase of the [Ca^2+]i induced by ABA in granulocytes is in turn responsible for activation of several functional activities typical of these cells. The functional effects induced by ABA (at concentrations ranging between 0.2 and 20 μM) in granulocytes include stimulation of the production of reactive oxygen species (ROS), measured through the cytochrome c […] (FIG. 2A), and of nitric oxide (NO), measured as accumulation of nitrite, the end-product of NO […] (FIG. 2B).

human granulocytes [3] = assay: Chemotaxis and chemokinesis of granulocytes; format: cell-based; settings: ABA 0.2-20 μM
human granulocytes [4] = assay: GDP-ribosyl cyclase activity in granulocytes; format: cell-based; settings: ABA 0.2 to 200 μM; detectable after 5 min
Description: as §1
Granulocytes were resuspended in HBSS (60×10^6/ml) and cyclase activity was measured by adding the substrate NGD^+ (a NAD^+ analogue, which product cGDPR is fluorescent) at the concentration of 0.2 mM together with increasing concentrations of ABA. At various times (0, 5, 15, 60 and 120 min) 100 μl-aliquots were withdrawn and centrifuged (5,000×g for 15 s) and supernatants were deproteinized with 2.5% (v/v) trichloroacetic acid. The cGDPR content was estimated by HPLC analysis, as described in (Guida, FEBS 1995).

[5] = test system: murine microglia cell line N9; assay: Chemokinesis of murine microglia N9; format: cell-based; settings: ABA 0.2-20 μM
Description: Assays were performed using 96-well ChemoTx system microplates with a 3-μm pore size polycarbonate filter (NeuroProbe Inc., Gaithersburg, USA). Cells (granulocytes or murine microglia) were resuspended at 10^7/ml in HBSS, PBS and 5% albumin, 39:16:1 (chemotaxis buffer, CB). In order to evaluate the chemoattractant effect of ABA, hormone concentrations ranging from 50 nM to 20 μM were added in CB in the bottom wells and 25 μl cell suspensions were placed on top of the filter. To evaluate a possible stimulatory effect of ABA on spontaneous cell movements (chemokinesis), cells were pre-incubated with or without 20 μM ABA, then washed and placed on top of the filter, in contact with CB. Plates were incubated at 37° C. for 60 min and transmigrated cells were recovered and quantified by fluorimetric assay with Cytox Green. The number of transmigrated cells was calculated by comparison of the measured fluorescence with that of a standard curve, obtained by directly placing a serial dilution of cells in the bottom wells. The results of the chemotaxis experiments are expressed as “chemotaxis index” (CI): CI=number of cells migrated towards chemoattractant/number of cells migrated towards CB
The results of the chemokinesis experiments are expressed as number of ABA pre-treated cells migrated through the filter compared to control cells (not treated with ABA).

[6] = test system: murine macrophages RAW 264.7; assay: Cell viability by Trypan blue exclusion, RAW 264.7; format: cell-based; settings: RAW 264.7, fluridone 50 μM
Text: (§2) A similar effect (90% inhibition) is produced by fluridone also on the LPS-induced TNF-α production in both cell types (FIGS. 7 A and B). In all these cases, no toxicity of fluridone on the cells was observed, as evaluated by the ability of excluding the dye Trypan blue.

[7] = test system: laboratory animals (mice, rats, dogs, fish and birds); settings: even at high concentrations; cited from earlier work
[8] = test system: human granulocytes and lymphocytes; assay: ABA content in stimulated human granulocytes and lymphocytes (immunoassay for ABA); format: cell-based; settings: fluridone 10-50 μM
Description: The increase of the intracellular ABA concentration induced by f-MLP in granulocytes and by PMA in lymphocytes is inhibited by the addition of fluridone at micromolar concentrations (ranging between 10 and 50 μM) during cell incubation with the pro-inflammatory stimuli.

[9] = cited from earlier work
[10] = test system: human lymphocytes and monocytes; assay: Cell viability by Trypan blue exclusion, human cells; format: cell-based; settings: fluridone 50 μM
Description: Inhibition of proliferation is not due to fluridone toxicity since the percentage of viable cells (excluding the dye Trypan blue) was similar in the cultures incubated with fluridone compared to controls.
as §2

Row | SMILES | intracellular cADPR concentration ([cADPR]i) (human granulocytes [1]) | [Ca2+]i (human granulocytes [2]) [nM] | chemokinesis (human granulocytes [3]) | chemotaxis (chemoattractant effect) (human granulocytes [3]) | GDP-ribosyl cyclase activity (human granulocytes [4]) | chemokinesis [5] | toxicity on the cells (Trypan blue exclusion) [6] | toxic, mutagenic, teratogenic or cancerogenic effects [7] | inhibition of the increase of intracellular ABA concentration ([8]; granulocytes, f-MLP-induced) [%] | inhibition of the increase of intracellular ABA concentration ([8]; lymphocytes, PMA-induced) [%] | maximum permissible intake allowed in humans ([9]; from chronic toxicity in rats fed with fluridone, dose reduction of two logarithms) [mg/kg/day] | ADI (acceptable daily intake) ([9]; humans) [mg/Kg/die] | toxicity on the cells (Trypan blue exclusion) ([10]; human monocytes) | percentage of viable cells (excluding Trypan blue) compared to controls ([10]; lymphocyte cultures)
1 | CC1=CC(=O)CC(C)(C)[C@@]1(O)/C=C/C(C)=C\C(=O)O (racemic) [ABA, (±)-cis, trans ABA] | increase | 170 ± 25 | significant increase; also recorded: ↑chemokinesis | behaves as a chemoattractant; also recorded: ↑chemotaxis | dose-dependent stimulation | increase; also recorded: ↑chemokinesis | – | – | – | – | – | – | – | –
2 | Cn1cc(-c2ccccc2)c(=O)c(-c2cccc(C(F)(F)F)c2)c1 [Fluridone, 1-methyl-3-phenyl-5-(α,α,α-trifluoro-m-tolyl)-4-pyridone] | – | – | – | – | – | – | no toxicity | absence of toxic, mutagenic, teratogenic or cancerogenic effects | 40 | 50 | 4.8 | 0.08 | no toxicity | similar
